{"source": "patent US6362369B1", "about": "“Phthalic acid diamide derivatives fluorine-containing aniline compounds as starting material, agricultural and horticultural insecticides, and a method for application of the insecticides” (Nihon Nohyaku Co., Ltd., priority 1997, dated 2002)", "system": "diamondback moth (Plutella xylostella)", "test": "Insecticidal effect on diamondback moth (Test Example 1)", "format": "in vivo", "settings": "for Insecticidal effect, Test Example 1 / Insecticidal effect (Test Example 1), judged from mortality: diamondback moth; for Insecticidal effect on diamondback moth (Test Example 1), judged grade: mortality judged according to the criterion shown in Test Example 1; for Insecticidal effect (Test Example 1), judged from mortality: judged by the criterion of Test Example 1", "method": "Insecticidal effect on diamondback moth (Plutella xylostella) Adult diamondback moths were released and allowed to oviposit on a Chinese cabbage seedling. […] After air-drying, it was allowed to stand in a room thermostated at 25° C. Six days after the immersion, the hatched insects were counted. The mortality was calculated according to the following equation and the insecticidal effect was judged according to the criterion shown below. The test was carried out with triplicate groups of 10 insects. [table]", "key": {"[1]": {"settings": "mortality judged by criterion of Test Example 1"}, "[2]": {"settings": "judged by the mortality criterion of Test Example 1"}}}
{"smiles": "CC(C)(C)NC(=O)c1c(I)cccc1C(=O)Nc1ccc2nc(C(F)(F)C(F)(F)F)oc2c1", "note": "[compound 1181]", "values": [{"measurement": "Insecticidal effect, Test Example 1", "setting": "[1]", "value": "A (100)"}]}
{"smiles": "CC(C)NC(=O)c1cccc(I)c1C(=O)Nc1ccc(SC(F)(F)C(F)F)cc1", "note": "[compound 422]", "values": [{"measurement": "Insecticidal effect, Test Example 1", "setting": "[2]", "value": "A (100)"}]}
{"smiles": "CCOCCNC(=O)c1cccc(I)c1C(=O)Nc1ccc(C(F)(F)C(F)(F)F)cc1C", "note": "[compound 984]", "values": [{"measurement": "Insecticidal effect, Test Example 1", "setting": "[1]", "value": "A (100)"}]}
{"smiles": "Cc1cc(C)c(NC(=O)c2cccc(Br)c2C(=O)NC(C)C)c(C)c1", "note": "[compound 265]", "values": [{"measurement": "Insecticidal effect, Test Example 1", "setting": "[2]", "value": "A (100)"}]}
{"smiles": "Cc1cc(C(F)(F)F)ccc1NC(=O)c1c(C(=O)NC(C)C)cccc1[N+](=O)[O-]", "note": "[compound 742]", "values": [{"measurement": "Insecticidal effect on diamondback moth (Test Example 1), judged grade", "value": "A (100)"}]}
{"smiles": "CC(C)c1cc(C(F)(C(F)(F)F)C(F)(F)F)ccc1NC(=O)c1cccc(I)c1C(=O)NC(C)(C)C", "note": "[compound 1692]", "values": [{"measurement": "Insecticidal effect (Test Example 1), judged from mortality", "value": "A (100)"}]}
{"smiles": "Cc1cc(C(F)(F)C(F)(F)F)ccc1NC(=O)c1c(I)cccc1C(=O)NCC(C)C", "note": "[compound 1006]", "values": [{"measurement": "Insecticidal effect, Test Example 1", "setting": "[1]", "value": "A (100)"}]}
{"smiles": "Cc1cc(Oc2ncc(C(F)(F)F)cc2Cl)ccc1NC(=O)c1c(I)cccc1C(=O)NC(C)C", "note": "[compound 461]", "values": [{"measurement": "Insecticidal effect on diamondback moth (Test Example 1), judged grade", "value": "A (100)"}]}
{"smiles": "CCCNC(=O)c1cccc(I)c1C(=O)Nc1ccc(OC(F)F)cc1C", "note": "[compound 1451]", "values": [{"measurement": "Insecticidal effect (Test Example 1), judged from mortality", "value": "A (100)"}]}
{"smiles": "CCCNC(=O)c1ccccc1C(=O)Nc1ccc(C(F)(F)F)cc1", "note": "[compound 14]", "values": [{"measurement": "Insecticidal effect, Test Example 1", "setting": "[2]", "value": "A (100)"}]}
{"smiles": "Cc1cc(OC(F)(F)C(F)F)ccc1NC(=O)c1cc(I)ccc1C(=O)NC(C)C", "note": "[compound 1249]", "values": [{"measurement": "Insecticidal effect, Test Example 1", "setting": "[1]", "value": "A (100)"}]}
{"smiles": "Cc1cc(Cl)ccc1NC(=O)c1cccc(S(=O)(=O)C(C)C)c1C(=O)NC(C)C", "note": "[compound 796]", "values": [{"measurement": "Insecticidal effect on diamondback moth (Test Example 1), judged grade", "value": "A (100)"}]}
{"smiles": "Cc1cccc(C(=O)Nc2ccc(OC(F)(F)F)cc2)c1C(=O)NC(C)C", "note": "[compound 749]", "values": [{"measurement": "Insecticidal effect on diamondback moth (Test Example 1), judged grade", "value": "A (100)"}]}
{"smiles": "CCc1cc(I)ccc1NC(=O)c1c(I)cccc1C(=O)NC(C)C", "note": "[compound 920]", "values": [{"measurement": "Insecticidal effect on diamondback moth (Test Example 1), judged grade", "value": "A (100)"}]}
{"smiles": "CC(C)NC(=O)c1c(C(=O)Nc2cccc(Cl)c2)cccc1[N+](=O)[O-]", "note": "[compound 587]", "values": [{"measurement": "Insecticidal effect on diamondback moth (Test Example 1), judged grade", "value": "A (100)"}]}
{"smiles": "Cc1cc(C(F)(F)C(F)(F)F)ccc1NC(=O)c1c(Cl)cccc1C(=O)NC(C)c1ccccc1Cl", "note": "(stereo not drawn) [compound 1363]", "values": [{"measurement": "Insecticidal effect, Test Example 1", "setting": "[1]", "value": "A (100)"}]}
{"smiles": "Cc1ccc(F)cc1NC(=O)c1cccc([N+](=O)[O-])c1C(=O)NC1CCC1", "note": "[compound 855]", "values": [{"measurement": "Insecticidal effect on diamondback moth (Test Example 1), judged grade", "value": "A (100)"}]}
{"smiles": "COc1ccc(CNC(=O)c2c(Cl)cccc2C(=O)Nc2ccc(C(F)(F)C(F)(F)F)cc2C)cc1", "note": "[compound 1347]", "values": [{"measurement": "Insecticidal effect, Test Example 1", "setting": "[1]", "value": "A (100)"}]}
{"smiles": "CCNC(=O)c1ccccc1C(=O)Nc1ccc(C(F)(F)F)cc1", "note": "[compound 7]", "values": [{"measurement": "Insecticidal effect, Test Example 1", "setting": "[2]", "value": "A (100)"}]}
{"smiles": "CC(C)NC(=O)c1c(C(=O)Nc2ccc3c(c2)nc(C(F)(F)F)n3C)cccc1[N+](=O)[O-]", "note": "[compound 737]", "values": [{"measurement": "Insecticidal effect on diamondback moth (Test Example 1), judged grade", "value": "A (100)"}]}
{"smiles": "CC(C)NC(=O)c1c(Cl)cccc1C(=O)Nc1cc(Cl)c(OC(F)F)c(Cl)c1", "note": "[compound 151]", "values": [{"measurement": "Insecticidal effect, Test Example 1", "setting": "[2]", "value": "A (100)"}]}
{"smiles": "CC(C)NC(=O)c1cccc(Cl)c1C(=O)Nc1ccc(C=C(Cl)Cl)cc1", "note": "[compound 916]", "values": [{"measurement": "Insecticidal effect on diamondback moth (Test Example 1), judged grade", "value": "A (100)"}]}
{"smiles": "Cc1cc(C(F)(F)C(F)(F)F)ccc1NC(=O)c1c(Cl)cccc1C(=O)NC(C)c1cccc(Cl)c1", "note": "(stereo not drawn) [compound 1365]", "values": [{"measurement": "Insecticidal effect, Test Example 1", "setting": "[1]", "value": "A (100)"}]}
{"smiles": "CCN(CC)C(=O)c1cccc([N+](=O)[O-])c1C(=O)Nc1ccc(OC(F)(F)C(F)F)cc1C", "note": "[compound 1137]", "values": [{"measurement": "Insecticidal effect, Test Example 1", "setting": "[1]", "value": "A (100)"}]}
{"smiles": "Cc1ccc(Cl)cc1NC(=O)c1cccc([N+](=O)[O-])c1C(=O)NC(C)c1ccccc1", "note": "(stereo not drawn) [compound 878]", "values": [{"measurement": "Insecticidal effect on diamondback moth (Test Example 1), judged grade", "value": "C (89-80)"}]}
{"smiles": "Cc1cc(Oc2c(F)c(F)c(F)c(F)c2F)ccc1NC(=O)c1cccc(F)c1C(=O)NC(C)C", "note": "[compound 520]", "values": [{"measurement": "Insecticidal effect on diamondback moth (Test Example 1), judged grade", "value": "A (100)"}]}
{"smiles": "Cc1cc(SC(C)C)ccc1NC(=O)c1ccccc1C(=O)NC(C)C", "note": "[compound 68]", "values": [{"measurement": "Insecticidal effect, Test Example 1", "setting": "[2]", "value": "A (100)"}]}
{"smiles": "CC(C)NC(=O)c1cccc(I)c1C(=O)Nc1ccc(OC(F)F)cc1C(F)(F)F", "note": "[compound 465]", "values": [{"measurement": "Insecticidal effect on diamondback moth (Test Example 1), judged grade", "value": "A (100)"}]}
{"smiles": "Cc1ccccc1CNC(=O)c1cccc(Cl)c1C(=O)Nc1ccc(C(F)(F)C(F)(F)F)cc1C", "note": "[compound 1338]", "values": [{"measurement": "Insecticidal effect, Test Example 1", "setting": "[1]", "value": "A (100)"}]}
{"smiles": "Cc1cc(C(F)(F)C(F)(F)F)ccc1NC(=O)c1cccc(Cl)c1C(=O)NC(CO)c1ccc(-c2ccccc2)cc1", "note": "(stereo not drawn) [compound 1412]", "values": [{"measurement": "Insecticidal effect, Test Example 1", "setting": "[1]", "value": "A (100)"}]}
{"smiles": "Cc1cc(C(F)(F)C(F)(F)F)ccc1NC(=O)c1cccc(I)c1C(=O)N1CCC(C)CC1", "note": "[compound 1083]", "values": [{"measurement": "Insecticidal effect, Test Example 1", "setting": "[1]", "value": "A (100)"}]}
{"smiles": "Cc1cc(Oc2c(F)c(F)c(F)c(F)c2F)ccc1NC(=O)c1c(I)cccc1C(=O)NC(C)C", "note": "[compound 459]", "values": [{"measurement": "Insecticidal effect on diamondback moth (Test Example 1), judged grade", "value": "A (100)"}]}
{"smiles": "CCCCNC(=O)c1c(C(=O)Nc2cc(Cl)ccc2C)cccc1[N+](=O)[O-]", "note": "[compound 830]", "values": [{"measurement": "Insecticidal effect on diamondback moth (Test Example 1), judged grade", "value": "C (89-80)"}]}
{"smiles": "Cc1cc(OC(F)F)ccc1NC(=O)c1c(C(=O)NC(C)C)ccc(Br)c1Br", "note": "[compound 342]", "values": [{"measurement": "Insecticidal effect, Test Example 1", "setting": "[2]", "value": "A (100)"}]}
{"smiles": "CC(C)NC(=O)c1cccc(F)c1C(=O)Nc1ccc(SC(F)(F)C(F)F)cc1", "note": "[compound 540]", "values": [{"measurement": "Insecticidal effect on diamondback moth (Test Example 1), judged grade", "value": "A (100)"}]}
{"smiles": "CC(C)NC(=O)c1cc(Cl)ccc1C(=O)Nc1ccc(F)c(F)c1", "note": "[compound 174]", "values": [{"measurement": "Insecticidal effect, Test Example 1", "setting": "[2]", "value": "A (100)"}]}
{"smiles": "Cc1cc(C(F)(F)C(F)(F)F)ccc1NC(=O)c1c(I)cccc1C(=O)NC1CCCC1", "note": "[compound 992]", "values": [{"measurement": "Insecticidal effect, Test Example 1", "setting": "[1]", "value": "A (100)"}]}
{"smiles": "Cc1cccc(NC(=O)c2cccc([N+](=O)[O-])c2C(=O)NC(C)C)c1", "note": "[compound 600]", "values": [{"measurement": "Insecticidal effect on diamondback moth (Test Example 1), judged grade", "value": "A (100)"}]}
{"smiles": "CCc1cc(Cl)ccc1NC(=O)c1c(Br)cccc1C(=O)NC(C)C", "note": "[compound 310]", "values": [{"measurement": "Insecticidal effect, Test Example 1", "setting": "[2]", "value": "A (100)"}]}
{"smiles": "Cc1cccc(C)c1NC(=O)c1cccc([N+](=O)[O-])c1C(=O)NC(C)C", "note": "[compound 650]", "values": [{"measurement": "Insecticidal effect on diamondback moth (Test Example 1), judged grade", "value": "A (100)"}]}
{"smiles": "Cc1cc(C(F)(F)C(F)(F)F)ccc1NC(=O)c1cccc(Cl)c1C(=O)NCCOc1ccccc1", "note": "[compound 1374]", "values": [{"measurement": "Insecticidal effect, Test Example 1", "setting": "[1]", "value": "A (100)"}]}
{"smiles": "CC(C)NC(=O)c1ccc(Cl)cc1C(=O)Nc1ccc(OC(F)(F)F)cc1", "note": "[compound 185]", "values": [{"measurement": "Insecticidal effect, Test Example 1", "setting": "[2]", "value": "A (100)"}]}
{"smiles": "CCCNC(=O)c1cccc(F)c1C(=O)Nc1ccc(C(F)(F)C(F)(F)F)cc1F", "note": "[compound 1513]", "values": [{"measurement": "Insecticidal effect (Test Example 1), judged from mortality", "value": "A (100)"}]}
{"smiles": "CC(C)NC(=O)c1cccc(Cl)c1C(=O)Nc1ccc2[nH]c(C(F)(F)F)nc2c1", "note": "[compound 256]", "values": [{"measurement": "Insecticidal effect, Test Example 1", "setting": "[2]", "value": "A (100)"}]}
{"smiles": "CC(C)(C)NC(=O)c1ccccc1C(=O)Nc1ccc2c(c1)OC(F)(F)C(F)(F)O2", "note": "[compound 1065]", "values": [{"measurement": "Insecticidal effect, Test Example 1", "setting": "[1]", "value": "A (100)"}]}
{"smiles": "CC(C)NC(=O)c1cc(Cl)ccc1C(=O)Nc1ccccc1", "note": "[compound 168]", "values": [{"measurement": "Insecticidal effect, Test Example 1", "setting": "[2]", "value": "A (100)"}]}
{"smiles": "CC(C)NC(=O)c1cccc(F)c1C(=O)Nc1ccc(Oc2ccc(C(F)(F)F)cc2Cl)cc1F", "note": "[compound 902]", "values": [{"measurement": "Insecticidal effect on diamondback moth (Test Example 1), judged grade", "value": "A (100)"}]}
{"smiles": "Cc1ccc(Cl)cc1NC(=O)c1cccc([N+](=O)[O-])c1C(=O)NC1CCCCC1", "note": "[compound 859]", "values": [{"measurement": "Insecticidal effect on diamondback moth (Test Example 1), judged grade", "value": "D (79-50)"}]}
